In patent EP4342530A1, “SORTILIN MODULATORS” (Insusense ApS, priority 2022, dated 2024):

Experiments:
[1] = biological target: T1, h-Sortilin (Homo sapiens, UniProt Q99523); experiment: Neurotensin scintillation proximity assay (displacement of [3H]-neurotensin binding); conditions: 150 nM 6his-Sortilin, 5 nM [3H]-Neurotensin; average of at least 2 determinations; read-out: IC50 [3H]Neurotensin SPA
T1 sequence (Q99523 78-831): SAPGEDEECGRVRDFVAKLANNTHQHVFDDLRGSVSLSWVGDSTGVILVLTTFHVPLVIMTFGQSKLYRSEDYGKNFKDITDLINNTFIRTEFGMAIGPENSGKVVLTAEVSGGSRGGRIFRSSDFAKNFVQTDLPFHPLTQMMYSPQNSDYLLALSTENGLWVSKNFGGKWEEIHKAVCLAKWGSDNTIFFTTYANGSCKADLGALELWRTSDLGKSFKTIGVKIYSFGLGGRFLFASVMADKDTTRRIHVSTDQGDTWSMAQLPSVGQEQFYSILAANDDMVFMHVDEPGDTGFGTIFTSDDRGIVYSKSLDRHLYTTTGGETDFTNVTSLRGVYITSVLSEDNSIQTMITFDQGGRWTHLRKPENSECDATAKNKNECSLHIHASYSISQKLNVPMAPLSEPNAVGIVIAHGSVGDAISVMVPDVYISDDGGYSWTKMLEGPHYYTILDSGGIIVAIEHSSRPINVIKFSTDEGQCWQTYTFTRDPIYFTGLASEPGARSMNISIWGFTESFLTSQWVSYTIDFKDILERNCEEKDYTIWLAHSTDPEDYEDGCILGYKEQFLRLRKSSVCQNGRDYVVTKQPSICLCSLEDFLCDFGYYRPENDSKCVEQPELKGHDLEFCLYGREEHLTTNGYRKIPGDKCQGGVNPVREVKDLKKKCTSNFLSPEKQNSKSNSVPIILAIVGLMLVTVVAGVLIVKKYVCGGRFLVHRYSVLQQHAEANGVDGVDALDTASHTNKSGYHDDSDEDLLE
Outline: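 Compounds pre-incubated 30 min at room temperature with 150 nM 6His-sortilin in HEPES pH 7.4 buffer with NaCl, CaCl2, BSA and Tween-20, then 5 nM [3H]-neurotensin and Ni chelate SPA beads added; read after 6 h. IC50 from 8-point variable-slope fits, mean of at least 2 determinations.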

[2] = Brain homogenate binding by rapid equilibrium dialysis, rat brain; format: in vitro ADME; conditions: pH 7.4, 37 °C, dilution factor 5, read-out: Unbound (Fu, %)
Description: Plasma protein binding and brain homogenate binding for study compounds in mouse, dog, and rat by rapid equilibrium dialysis
In practice, unbound fractions in plasma and brain tissue were assessed using rapid equilibrium dialysis in vitro. Separately a pharmacokinetic study was run in vivo whereby a dose of the compound of interest was given at T=0 hours and at subsequent timepoints (eg 0.5, 1 and 4 hours) plasma and separately brain samples were analysed for total concentration of the compound of interest. These total concentrations could then be adjusted with the unbound fraction to give the unbound concentrations in the plasma and brain.
The test compounds were incubated in plasma and brain homogenate from the relevant species at 37 °C in RED device with inserts (8K MWCO, Thermo scientific) for 4 hours at 5 µM in triplicates. 350 µL of 150 mM phosphate buffered saline (PBS, pH 7.4) was used as the receiver side solutions. […] After 10-minute centrifugation at 13 200 rpm, the sample supernatants were analysed with an LC-MS/MS, to obtain the unbound fraction of the test compound (Fub). The unbound fraction was calculated from the peak area ratios obtained for each matrix: Fub = CPBS /Cplasma; [formula] where CPBS and Cplasma are the analyte concentrations in PBS (receiver) and plasma (donor), respectively. […]

| Structure (SMILES) | IC50 [1] | fraction unbound at 4 h, 5 µM [2] |
| --- | --- | --- |
| C[C@@H](N[C@@H](CCC(C)(C)C)C(=O)O)c1ccc2c(c1)OCCC2 [Example 9] | 210 nM | – |
| C[C@@H](N[C@@H](CCC(C)(C)C)C(=O)O)c1ccc2c(c1)CCCO2 [Example 52] | 260 nM | – |
| CC(C)(C)CC[C@H](NCc1ccc2c(c1)COCC2)C(=O)O [Example 3, (S)-2-((isochroman-7-ylmethyl)amino)-5,5-dimethylhexanoic acid] | 230 nM | 0.371 |
| C[C@H](N[C@@H](CCC(C)(C)C)C(=O)O)c1ccc2c(c1)CCCO2 [Example 50] | 230 nM | – |
